Assay results taken from PMC9375819 (EJNMMI Research, 2022).
One block for each compound: values may come before it.

Columns and labels:
ATM [1] = molecular target: T1, ATM (Homo sapiens, UniProt Q13315); experiment: Western blot of pATM, pKAP1 and pCHK2 in irradiated H1299 shGFP cells; assay type: cell-based; conditions: irradiated (4 Gy) H1299 shGFP knockdown cells, inhibitor 1 h before irradiation, relative to DMSO control
T1 construct: endogenous in cells; host or cells: H1299 shGFP and shATM cells
T1 sequence (Q13315 whole entry): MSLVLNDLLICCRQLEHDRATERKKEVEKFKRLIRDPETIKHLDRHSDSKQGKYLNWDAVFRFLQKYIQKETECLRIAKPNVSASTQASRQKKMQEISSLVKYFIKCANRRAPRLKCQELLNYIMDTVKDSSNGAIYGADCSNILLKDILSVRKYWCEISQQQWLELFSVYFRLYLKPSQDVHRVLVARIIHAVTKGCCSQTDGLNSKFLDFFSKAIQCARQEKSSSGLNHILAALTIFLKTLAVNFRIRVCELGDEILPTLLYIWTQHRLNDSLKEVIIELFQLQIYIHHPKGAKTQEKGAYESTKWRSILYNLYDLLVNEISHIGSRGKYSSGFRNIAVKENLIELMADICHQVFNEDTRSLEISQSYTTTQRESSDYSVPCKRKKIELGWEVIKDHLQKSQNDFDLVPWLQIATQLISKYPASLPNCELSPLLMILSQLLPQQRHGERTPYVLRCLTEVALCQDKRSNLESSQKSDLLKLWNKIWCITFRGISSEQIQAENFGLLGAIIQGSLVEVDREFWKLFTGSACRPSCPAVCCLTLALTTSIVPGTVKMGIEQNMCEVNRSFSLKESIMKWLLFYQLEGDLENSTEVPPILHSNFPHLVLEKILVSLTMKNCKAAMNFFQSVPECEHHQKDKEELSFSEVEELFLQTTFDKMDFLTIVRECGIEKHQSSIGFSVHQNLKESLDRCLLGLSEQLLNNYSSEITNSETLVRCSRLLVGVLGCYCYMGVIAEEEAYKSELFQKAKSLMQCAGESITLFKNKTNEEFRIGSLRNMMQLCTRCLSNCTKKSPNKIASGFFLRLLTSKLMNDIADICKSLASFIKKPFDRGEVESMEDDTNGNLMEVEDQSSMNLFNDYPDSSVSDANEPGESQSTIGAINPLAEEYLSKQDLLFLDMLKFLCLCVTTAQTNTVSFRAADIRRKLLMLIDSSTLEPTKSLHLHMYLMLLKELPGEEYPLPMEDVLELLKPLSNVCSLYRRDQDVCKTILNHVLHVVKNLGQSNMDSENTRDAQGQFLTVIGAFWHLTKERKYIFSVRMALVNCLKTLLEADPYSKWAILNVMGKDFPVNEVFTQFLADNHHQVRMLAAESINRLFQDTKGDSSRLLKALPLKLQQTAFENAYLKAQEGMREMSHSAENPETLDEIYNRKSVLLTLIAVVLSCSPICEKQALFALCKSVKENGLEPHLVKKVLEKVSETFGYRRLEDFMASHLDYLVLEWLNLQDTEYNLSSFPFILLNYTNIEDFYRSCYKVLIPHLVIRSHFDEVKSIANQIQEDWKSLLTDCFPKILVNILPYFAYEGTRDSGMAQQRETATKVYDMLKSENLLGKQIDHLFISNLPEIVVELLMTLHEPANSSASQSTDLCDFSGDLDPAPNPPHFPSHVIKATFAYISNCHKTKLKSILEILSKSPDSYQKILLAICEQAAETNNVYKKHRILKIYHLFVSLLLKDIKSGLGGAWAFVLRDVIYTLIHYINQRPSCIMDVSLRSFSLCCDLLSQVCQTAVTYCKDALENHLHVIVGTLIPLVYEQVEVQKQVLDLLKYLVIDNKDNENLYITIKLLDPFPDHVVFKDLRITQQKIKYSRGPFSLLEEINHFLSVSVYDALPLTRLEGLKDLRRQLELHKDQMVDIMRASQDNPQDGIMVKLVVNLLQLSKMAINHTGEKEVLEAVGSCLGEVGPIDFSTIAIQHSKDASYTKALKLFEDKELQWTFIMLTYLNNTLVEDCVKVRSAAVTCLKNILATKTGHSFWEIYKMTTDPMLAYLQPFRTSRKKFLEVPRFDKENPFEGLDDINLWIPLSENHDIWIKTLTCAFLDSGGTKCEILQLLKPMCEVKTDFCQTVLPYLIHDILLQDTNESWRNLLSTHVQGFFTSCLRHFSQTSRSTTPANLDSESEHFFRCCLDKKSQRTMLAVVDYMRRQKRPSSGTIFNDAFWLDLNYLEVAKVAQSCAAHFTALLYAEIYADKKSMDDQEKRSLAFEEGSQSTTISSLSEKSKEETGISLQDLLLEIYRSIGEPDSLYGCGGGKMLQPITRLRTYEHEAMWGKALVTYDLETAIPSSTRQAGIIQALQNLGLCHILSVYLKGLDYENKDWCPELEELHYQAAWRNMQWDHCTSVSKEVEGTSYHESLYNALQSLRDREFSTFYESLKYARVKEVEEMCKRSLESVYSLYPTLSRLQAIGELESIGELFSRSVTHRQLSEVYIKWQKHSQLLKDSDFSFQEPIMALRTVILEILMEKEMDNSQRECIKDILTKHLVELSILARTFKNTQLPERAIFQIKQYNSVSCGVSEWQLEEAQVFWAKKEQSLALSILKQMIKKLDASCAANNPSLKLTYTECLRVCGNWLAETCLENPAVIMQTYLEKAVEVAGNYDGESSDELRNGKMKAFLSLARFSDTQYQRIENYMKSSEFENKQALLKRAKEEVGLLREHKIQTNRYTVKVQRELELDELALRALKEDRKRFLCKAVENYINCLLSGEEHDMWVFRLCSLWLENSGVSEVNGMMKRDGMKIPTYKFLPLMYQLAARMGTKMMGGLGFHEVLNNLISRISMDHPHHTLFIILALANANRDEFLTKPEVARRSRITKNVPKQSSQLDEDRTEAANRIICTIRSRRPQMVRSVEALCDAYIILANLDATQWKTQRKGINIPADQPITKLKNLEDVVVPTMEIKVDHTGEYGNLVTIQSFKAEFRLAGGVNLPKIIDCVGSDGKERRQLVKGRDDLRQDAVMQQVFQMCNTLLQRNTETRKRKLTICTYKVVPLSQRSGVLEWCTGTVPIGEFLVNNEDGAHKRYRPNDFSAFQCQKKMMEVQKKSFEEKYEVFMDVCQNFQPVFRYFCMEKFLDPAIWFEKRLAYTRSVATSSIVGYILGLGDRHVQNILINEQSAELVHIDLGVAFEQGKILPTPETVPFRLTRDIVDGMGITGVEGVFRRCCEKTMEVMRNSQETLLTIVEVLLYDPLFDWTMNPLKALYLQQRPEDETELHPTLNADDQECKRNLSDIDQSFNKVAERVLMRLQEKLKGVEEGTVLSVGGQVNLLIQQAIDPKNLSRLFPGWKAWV
Method: (§1) H1299 non-small cell lung cancer cells, either wild type or stably transfected with short hairpin RNA for ATM (shATM) or GFP (shGFP, as a control) expression knockdown, were kindly gifted by Dr Anderson Ryan at the University of Oxford. All cells were cultured at 37 °C and 5% CO2 in Dulbecco’s modified Eagle medium (DMEM) supplemented with 10% foetal bovine serum (FBS) (Gibco, USA), 2 mM L-glutamine, 100 units/mL penicillin, and 100 µg/mL streptomycin (PSG) (Sigma-Aldrich); knockdown cell lines were additionally supplemented with 0.5 μg/mL puromycin dihydrochloride (Merck Life Science, UK). Cells were originally purchased from ATCC and were authenticated by the provider and by STR profiling. Cells were tested regularly for the absence of mycoplasma contamination and were cultured for a maximum of 20 passages after resuscitation from liquid nitrogen storage.

ATM [2] = molecular target: T1, ATM; experiment: Blocking of [18F]1 cell-associated activity by non-radioactive ATM inhibitors; assay type: cell-based; conditions: for effect on [18F]1 cell-associated activity at high molar excess: 1000 nM inhibitor, compared to DMSO control; for effect on [18F]1 cell-associated activity at lower inhibitor concentrations: 0.1–10 nM inhibitor
Method: as §1

[3] = parameters: method as in PMID 29938225, PMID 33123736; conditions: phase I clinical trial; cited from earlier work
[4] = system: H1299 shATM and shGFP cells; experiment: Cell uptake of [18F]1; assay type: cell-based, human; conditions: irradiated 4 Gy or sham-irradiated, 37 °C
Method: as §1
To assess cellular uptake of [^18F]1, aliquots of H1299 shATM or shGFP cells were plated with 1 × 10^5 cells per well in 24-well plates in 500 μL complete growth medium and incubated overnight to allow cells to adhere. Cell culture medium was removed, cells washed with PBS and media replaced with DMEM (no additives). […] The amount of ^18F-activity associated with each fraction was determined using a Wizard2 Automatic Gamma Counter (PerkinElmer).

[5] = Ex vivo biodistribution, uptake in H1299 tumour xenografts; parameters: species or system BALB/c nu/nu mice
Method: (§2) All animal procedures were performed in accordance with the UK Animals (Scientific Procedures) Act 1986 and with local ethical committee approval. Mice were bred from parent C57BL/6 J mice heterozygous for a targeted mutation in the ATM^tm1Awbl allele to produce ATM-null (ATM^−/−) mice (Jackson laboratory). Wild-type (ATM^+/+) mice from this breeding program were used as controls. In a separate study, tumour xenografts were created in BALB/c nu/nu mice (8 weeks old) via subcutaneous injection of H1299 wild type, shATM knockdown, or shGFP knockdown cells in a 1:1 PBS/Matrigel® formulation on both sides of the hind flank. Total tumour volumes were allowed to reach an average of 600 mm^3 (range 330–930 mm^3) before imaging and/or biodistribution studies (approx. 6–10 weeks after inoculation).
Animals were anaesthetised by 4% isoflurane gas (0.5 L/min O2) and maintained at approx. 2% and 37 °C throughout the imaging session. C57BL/6 ATM^+/+ and ATM^−/− mice were administered [^18F]1 (83 ng; 0.5–4.6 MBq, molar activity range of 3.2–24.2 GBq/μmol with a standard deviation of 6.5 GBq/μmol) via intravenous bolus injection in the lateral tail vein. Xenograft-bearing BALB/c nu/nu mice were administered [^18F]1 (0.5 μg; 0.7–9.6 MBq, molar activity range of 0.62–9.8 GBq/μmol with a standard deviation of 3.0 GBq/μmol) via intravenous bolus injection to the lateral tail vein. PET/CT scanning was completed using a VECTor4CT scanner (MILabs, Utrecht, the Netherlands) for 1 h and was immediately followed by culling, dissection, and gamma counting of selected organs. Tumour tissue was immediately flash frozen in liquid nitrogen and mounted in OCT before producing 10 μm thick sections for autoradiography and H&E staining. Alternatively, frozen tumour tissue was macerated and lysed in RIPA buffer for western blot analysis (full details available in the supporting information). Reconstruction of both CT and PET images was performed with the MILabs reconstruction analysis using a γ-ray energy window of 467–571 keV (background weight 2.5%), 0.8 mm^3 voxel size, 8 subsets, and 5 iterations using the manufacturer’s SROSEM reconstruction type. PET images were each registered to CT, attenuation corrected, calibrated by imaging a phantom containing a fluorine-18 standard solution, and analysed using PMod software package (version 3.807, PMOD Technologies).

[6] = PET/CT imaging and ex vivo biodistribution in wild type and ATM-null mice; parameters: species or system C57BL/6 mice; conditions: 1 h after intravenous administration
Method: as §2
Animals were anaesthetised by 4% isoflurane gas (0.5 L/min O2) and maintained at approx. 2% and 37 °C throughout the imaging session. C57BL/6 ATM^+/+ and ATM^−/− mice were administered [^18F]1 (83 ng; 0.5–4.6 MBq, molar activity range of 3.2–24.2 GBq/μmol with a standard deviation of 6.5 GBq/μmol) via intravenous bolus injection in the lateral tail vein. […] PET images were each registered to CT, attenuation corrected, calibrated by imaging a phantom containing a fluorine-18 standard solution, and analysed using PMod software package (version 3.807, PMOD Technologies).

[7] = system: H1299 shATM and shGFP cells; experiment: Cell retention of [18F]1; assay type: cell-based, human; conditions: after 1 h incubation with tracer, over 2 h
Method: as §1
Retention assays followed the same procedure with a 1-h incubation of cell with [^18F]1, but after culture medium was aspirated and cells washed with PBS (2 × 500 μL), it was replaced (500 μL DMEM) and cells incubated at 37 °C and 5% CO2 for the desired time. The amount of ^18F-activity retained in cells was then determined as above.

ATR = system: ATR; parameters: method as in earlier work; conditions: read-out: Cellular IC50 by catalytic inhibition: ATR; cited from earlier work
ATM [8] = system: ATM; parameters: method as in earlier work; conditions: cited from earlier work
murine ATM = molecular target: T2, murine ATM (Mus musculus, UniProt Q62388); experiment: Western blot of ATM inhibition in CT26 murine colorectal cancer cells; assay type: cell-based
T2 construct: endogenous in cells; host or cells: CT26 murine colorectal cancer cells
Method: Western blot analysis was performed to compare the total ATM expression between cell models, in addition to expression of phospho-ATM^S1981 (pATM), phospho-KAP1^S824 (pKAP1), and phospho-CHK2^T68 (pCHK2) expression to assess the effect of irradiation and ATM inhibition on ATM catalytic activity. Cells were irradiated (4 Gy; 0.75 Gy/min) or sham-irradiated and incubated at 37 °C for 1 h before harvesting cells for lysis and blotting (full details in supporting information). Where required, inhibitors were added to cells at the stated concentration from DMSO stock solutions (reaching no greater than 10% DMSO final concentration) with incubation for 1 h prior to irradiation/sham-irradiation. The following antibodies and dilutions were used in this work: phospho-ATM S1981 (ab81292, 1:5000, Abcam); phospho-KAP1 S824 (ab133440, 1:10,000, Abcam); phospho-CHK2 T68 (#2661, 1:1000, Cell Signalling Technologies); Total ATM (ab32420, clone [Y170], 1:500, Abcam); Total KAP1 (ab10483, 1:1000, Abcam); Total CHK2 (05-649, 1:1000, Merck Millipore); HRP-conjugated Tubulin (ab197740, clone [YL1/2], 1:4000, Abcam); HRP-conjugated β-Actin (clone 13E5, 1:1000, Cell Signalling Technologies), HRP-conjugated anti-rabbit secondary (HAF008, 1:1000, R&D Systems); and HRP-conjugated anti-mouse secondary (HAF007, 1:1000, R&D Systems). […]

mTOR = system: mTOR; parameters: method as in earlier work; conditions: read-out: Cellular IC50 by catalytic inhibition: mTOR; cited from earlier work
PI3K = system: PI3K; parameters: method as in earlier work; conditions: read-out: Cellular IC50 by catalytic inhibition: PI3K; cited from earlier work
[9] = BALB/c nu/nu mice, intravenous, 1 h

pATM expression and downstream targets pKAP1 and pCHK2, western blot (ATM [1]): decrease in pATM expression | effect on [18F]1 cell-associated activity at high molar excess (ATM [2]): increase in cell-associated activity | effect on [18F]1 cell-associated activity at lower inhibitor concentrations (ATM [2]; H1299 shATM and shGFP cells): initial blocking effect
SMILES: CC(C)n1c(=O)n(C)c2cnc3cc(F)c(-c4ccc(OCCCN5CCCCC5)nc4)cc3c21 [AZD1390]

pATM expression and downstream targets pKAP1 and pCHK2, western blot (ATM [1]): decrease in pATM expression | blocking of [18F]1 cell-associated activity (ATM [2]; increasing concentrations of blocking agent, H1299 shATM and shGFP cells, 1 h tracer incubation): significant blocking
SMILES: C[C@@H]1CN(CC(=O)Nc2ccc3c(c2)Cc2cccc(-c4cc(=O)cc(N5CCOCC5)o4)c2S3)C[C@H](C)O1 [KU60019, reference compound]

SMILES: CC(C)n1c(=O)n([11CH3])c2cnc3cc(F)c(-c4ccc(OCCCN5CCCCC5)nc4)cc3c21 [[^11C]AZD1390]
blood–brain barrier penetration by PET [3]: ability to cross the blood–brain barrier

uptake in H1299 tumour xenografts (shATM) [5, 9]: 0.35 ± 0.10 %ID/g | uptake in H1299 tumour xenografts (shGFP) [5, 9]: 0.35 ± 0.14 %ID/g | uptake in H1299 tumour xenografts (wild type) [5, 9]: 0.38 ± 0.12 %ID/g | tumour uptake, range ([5]; after 1 h, all tumour types): 0.13–0.90 %ID/g | clearance route ([5]; xenograft-bearing BALB/c nu/nu mice): hepatobiliary clearance | clearance route ([6]; wild type and ATM-null C57BL/6 mice): hepatobiliary clearance
SMILES: CC(C)n1c(=O)n(C)c2cnc3ccc(-c4ccc(OCCCN5CCCCC5)nc4[18F])cc3c21 [[^18F]1]
cell-associated activity (uptake) [4]: increase in cell-associated activity over 1 h followed by a plateau | difference in uptake between wild type and ATM-null mice ([6]; C57BL/6 mice): Significant differences in uptake between the two mice were only observed in the kidneys and liver | decrease in cell-associated activity (retention) [7]: approximately 50%

pATM expression and downstream targets pKAP1 and pCHK2, western blot (ATM [1]): decrease in pATM expression | effect on [18F]1 cell-associated activity at high molar excess (ATM [2]): increase in cell-associated activity | effect on [18F]1 cell-associated activity at lower inhibitor concentrations (ATM [2]; H1299 shATM and shGFP cells): initial blocking effect | murine ATM inhibition and reduction of downstream target pKAP1, western blot (murine ATM): murine ATM inhibition
SMILES: CC(C)n1c(=O)n(C)c2cnc3ccc(-c4ccc(OCCCN5CCCCC5)nc4F)cc3c21 [compound 1]
IC50 (ATR): > 30 µM | IC50 (ATM [8]; read-out: Cellular IC50 by catalytic inhibition: ATM): < 0.00043 µM | IC50 value of ATM inhibition (ATM [8]; reported value): sub-nM | IC50 (mTOR): > 5.19 µM | IC50 (PI3K): 5.75 µM

pATM expression and downstream targets pKAP1 and pCHK2, western blot (ATM [1]): decrease in pATM expression
SMILES: CC(C)n1c(=O)n(C)c2cnc3ccc(-c4ccc(OCCCN5CCCCC5)nc4[N+](=O)[O-])cc3c21 [compound 2]
